Reference: patent US8067456B2 (AEterna Zentaris GmbH, priority 2004, dated 2011)

Assays:
[1] = Metabolic stability in rat liver microsomes; type: in vitro ADME; details: 37° C., NADPH
Method: (§1) The metabolic stability in relation to liver microsomes (species human, rat) was determined in accordance with the following description: the substances were incubated at a test concentration of 1 […] An HPLC MS/MS method was subsequently used to quantify the unmetabolized amount of starting compound relative to 100%.

[2] = target: T1, NK2 (h) (Homo sapiens, UniProt P21452); assay: NK2 receptor-ligand binding assay (Cerep); details: for nH: Hill coefficient of competition plot; for IC50 / Ki: ligand [Nle10]-NKA(4-10)
T1 construct: Cerep Assay 826-2h
T1 sequence (P21452 1-398): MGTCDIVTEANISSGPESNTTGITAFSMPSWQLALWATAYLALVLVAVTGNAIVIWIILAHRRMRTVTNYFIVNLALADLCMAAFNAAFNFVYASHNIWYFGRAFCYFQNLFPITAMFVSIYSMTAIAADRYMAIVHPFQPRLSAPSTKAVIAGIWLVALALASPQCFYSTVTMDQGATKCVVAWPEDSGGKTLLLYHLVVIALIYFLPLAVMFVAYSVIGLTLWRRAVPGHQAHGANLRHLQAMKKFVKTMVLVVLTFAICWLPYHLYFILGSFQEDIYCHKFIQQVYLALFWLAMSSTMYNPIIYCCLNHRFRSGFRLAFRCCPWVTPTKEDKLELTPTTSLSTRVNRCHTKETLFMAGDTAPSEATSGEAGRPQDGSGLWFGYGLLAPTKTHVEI
Method: (§2) Receptor affinities (IC50 values) of the compounds of the invention of the general formulae (I, Ia and Ib) were measured as described by E. Heuillet et al., J. Neurochem., 60: 868-876 (1993) and D. Aharony et al. Mol. Pharmacol, 44: 356-363 (1993) commercially by Cerep (Assay 826-1h on page 67 and Assay 826-2h on page 68 of the 2005 catalogue).
(§3) FIGS. 8-11 show competition plots measured in the NK1 and NK2 receptor-ligand binding assays with [Sar^9, Met(O2)^11]-SP for NK1 and [Nle^10]-NKA(4-10) for NK2, and the selected substances (68 and 76).

[3] = target: T2, LHRH receptor (Rattus norvegicus, UniProt P30969); assay: LHRH receptor-ligand binding assay (membrane preparations from rat pituitary cells); details: competition with 0.05 nM [125I][D-Trp6]-LHRH, 90 min, 4° C., rat pituitary membranes
T2 construct: rat pituitary cells which naturally strongly express the LHRH receptor; from tissue; host or cells: rat pituitary cells (membrane preparation)
T2 sequence (P30969 1-327): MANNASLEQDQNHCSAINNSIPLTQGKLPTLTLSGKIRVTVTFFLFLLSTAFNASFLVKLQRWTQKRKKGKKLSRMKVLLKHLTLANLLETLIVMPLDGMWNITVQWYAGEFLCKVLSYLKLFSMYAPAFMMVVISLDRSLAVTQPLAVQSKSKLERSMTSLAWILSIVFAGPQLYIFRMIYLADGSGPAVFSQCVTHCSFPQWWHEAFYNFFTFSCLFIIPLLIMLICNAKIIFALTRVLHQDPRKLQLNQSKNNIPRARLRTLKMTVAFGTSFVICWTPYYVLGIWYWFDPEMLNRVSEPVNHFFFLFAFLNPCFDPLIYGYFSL
Method: Heterologous competition experiments were carried out using membrane preparations from rat pituitary cells which naturally strongly express the LHRH receptor. The ligand used in this case was [^125I][D-Trp^6]-LHRH in a concentration of 0.05 nM. Unlabeled [D-Trp^6]-LHRH was used in a concentration of 1 μM, or the test substance was used in the desired concentration, for competition. After an incubation time of 90 minutes at 4° C., the bound ligand was measured by scintillation (Halmos et al., Proc. Natl. Acad. Sci. USA, 1996, 93, 2398).
The result obtained was the percentage proportion of bound ligand in the presence of the competitor related to the specifically bound proportion of the control (see result for selected compounds in Table 3). EC50 values were calculated by nonlinear regression analysis of the competition plots.

[4] = Metabolic stability in human liver microsomes; type: in vitro ADME; details: 37° C., NADPH
Method: as §1

[5] = target: T3, NK1 (h) (Homo sapiens, UniProt P25103); assay: NK1 receptor-ligand binding assay (Cerep); details: for nH: Hill coefficient of competition plot; for IC50 / Ki: ligand [Sar9, Met(O2)11]-SP
T3 construct: Cerep Assay 826-1h
Method: as §2, §3

[6] = Saturation solubility in water; type: physicochemical; details: water, thermodynamic from solid; maximum of 1% DMSO added, HPLC UV
Method: The saturation solubility in water was determined in accordance with the following description: to initiate dissolving of the substances and to improve the wetting of the samples, a maximum of 1% DMSO was added. The content was checked by using an HPLC UV method.

[7] = system: castrated rats; assay: LH concentration suppression in the plasma of castrated rats; type: in vivo, rat; details: 19 mg/kg oral in Solutol HS15/1,2-propane-diol (3:1)
Method: The LH concentration in the plasma of castrated rats was measured using the rat luteinizing hormone (rLH) enzyme immunoassay (EIA) system ELISA (RPN 2562) from Amersham Pharmacia Biotech or of LH RIA-AH R002 rats; from Biocode-Hycel, Liege, Belgium. All other chemicals used were from commercial sources in the highest purity available.
10 days before the start of the test, male Sprague Dawley rats (Harlan Winkelmann, Germany) weighing 190-220 g were anesthetized with ether and castrated and provided with a silicone catheter for permanent blood sampling.
At the start of the test, before administration of the substance, blood samples were taken and the LH level determined. The substance was then administered orally in the desired concentration. The number of animals used in each group was 8. At the stated times, further blood samples were taken. The blood was collected in heparinized sample tubes on ice, and the plasma was obtained by centrifugation at 3000 g for 10 minutes. The plasma samples were stored at −20° C. until the LH concentration was measured by ELISA or RIA. The LH concentration was determined by an ELISA or RIA in duplicate determination in accordance with the manufacturer's (Amersham Pharmacia Biotech; Biocode-Hycel) instructions.
All the other data points for each individual animal were calculated as relative concentration compared with the LH concentration before treatment.

[8] = target: LHRH receptor (Homo sapiens, UniProt P30968); details: prior art, N. Cho et al. J. Med. Chem. 41, 4190-4195 (1998); cited from earlier work
[9] = in vivo; cited from earlier work

T3 sequence (P25103 whole entry): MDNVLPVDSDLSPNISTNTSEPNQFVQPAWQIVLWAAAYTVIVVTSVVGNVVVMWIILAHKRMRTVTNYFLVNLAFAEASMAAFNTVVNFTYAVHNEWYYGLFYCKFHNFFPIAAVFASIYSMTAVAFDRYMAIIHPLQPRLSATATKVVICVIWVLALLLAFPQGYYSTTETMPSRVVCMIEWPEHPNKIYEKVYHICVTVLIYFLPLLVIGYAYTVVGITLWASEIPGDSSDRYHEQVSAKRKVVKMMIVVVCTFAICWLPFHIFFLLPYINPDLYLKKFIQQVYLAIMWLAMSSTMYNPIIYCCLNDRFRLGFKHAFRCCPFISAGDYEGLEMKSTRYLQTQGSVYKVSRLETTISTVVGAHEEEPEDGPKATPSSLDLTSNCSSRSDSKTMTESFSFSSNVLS
Sequence of LHRH receptor (Homo sapiens, UniProt P30968) (P30968 whole entry): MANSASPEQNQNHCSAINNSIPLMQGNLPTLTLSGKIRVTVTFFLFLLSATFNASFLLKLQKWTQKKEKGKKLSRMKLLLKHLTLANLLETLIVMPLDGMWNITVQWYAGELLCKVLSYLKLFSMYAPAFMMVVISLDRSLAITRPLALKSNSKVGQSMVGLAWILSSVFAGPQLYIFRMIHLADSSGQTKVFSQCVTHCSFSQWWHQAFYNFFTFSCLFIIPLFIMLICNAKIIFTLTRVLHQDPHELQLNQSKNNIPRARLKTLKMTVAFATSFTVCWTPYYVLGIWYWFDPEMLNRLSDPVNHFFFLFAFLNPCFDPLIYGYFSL

Row | SMILES | recovery at 10 μM [1] [%] | nH [2] | IC50 [2] [nM] | Ki [2] [nM] | EC50 [3] [nM] | recovery at 10 μM [4] [%] | nH [5] | IC50 [5] [nM] | Ki [5] [nM] | also measured
1 | CCC(C)[C@H](NC(=O)Cc1ccccc1F)C(=O)N[C@]1(C(=O)N[C@H](C(N)=S)C(C)CC)CCc2[nH]c3c(C(F)(F)F)cccc3c2C1 (stereo partly drawn) [Compound 76, (R)-3-{(S)-2-[2-(2-fluorophenyl)acetylamino]-3-methylpentanoylamino}-8-trifluoromethyl-2,3,4,9-tetrahydro-1H-carbazole-3-carboxylic acid ((S)-2-methyl-1-thiocarbamoylbutyl)amide] | 69 | 2.3 | 1500 | 810 | 0.27 | 84 | 2.3 | 1900 | 840 | 
2 | CCC(C)[C@H](NC(=O)[C@@]1(NC(=O)[C@@H](NC(=O)OCc2ccccc2)C(C)CC)CCc2[nH]c3c(Cl)cc(Cl)cc3c2C1)C(N)=O (stereo partly drawn) [Example 295 from WO 03/051837 A2, Benzyl {(S)-1-[(R)-3-((S)-1-carbamoyl-2-methylbutylcarbamoyl)-6,8-dichloro-2,3,4,9-tetrahydro-1H-carbazol-3-ylcarbamoyl]-2-methylbutyl]carbamate, reference compound] |  |  |  |  |  |  |  |  |  | recovery at 1 μM ([1]; 1 μM): 0%; solubility [6]: < 0.05 µg/mL; recovery at 1 μM ([4]; 1 μM): 0%
3 | CCC(C)[C@H](NC(=O)Cc1ccccc1F)C(=O)N[C@]1(C(=O)N[C@H](C(N)=S)C(C)CC)CCc2[nH]c3c(Cl)cc(F)cc3c2C1 (stereo partly drawn) [Compound 68, (R)-8-chloro-6-fluoro-3-{(S)-2-[2-(2-fluorophenyl)acetylamino]-3-methylpentanoylamino}-2,3,4,9-tetrahydro-1H-carbazole-3-carboxylic acid ((S)-2-methyl-1-thiocarbamoylbutyl)amide] | 80 | 3.8 | 1600 | 850 | 1 | 75 | 2.0 | 1400 | 640 | Relative LH concentration (%) (averages ± SEM compared with the concentration before treatment) ([7]; time 0 h): 95.0 ± 9.3%; Relative LH concentration (%) (averages ± SEM compared with the concentration before treatment) ([7]; time +4 h): 17.4 ± 3.3%; Relative LH concentration (%) (averages ± SEM compared with the concentration before treatment) ([7]; time +6 h): 16.0 ± 1.5%; Relative LH concentration (%) (averages ± SEM compared with the concentration before treatment) ([7]; time +8 h): 12.9 ± 1.0%; Relative LH concentration (%) (averages ± SEM compared with the concentration before treatment) ([7]; time +12 h): 16.0 ± 2.6%; Relative LH concentration (%) (averages ± SEM compared with the concentration before treatment) ([7]; time +24 h): 65.7 ± 10.8%; Relative LH concentration (%) (averages ± SEM compared with the concentration before treatment) ([7]; time +30 h): 78.1 ± 7.7%; Relative LH concentration (%) (averages ± SEM compared with the concentration before treatment) ([7]; time −24 h (before treatment)): 105.4 ± 12.7%
4 | CC(C)OC(=O)c1cn(Cc2c(F)cccc2F)c2sc(-c3ccc(NC(=O)C(C)C)cc3)c(CN(C)Cc3ccccc3)c2c1=O [Compound T-98475] |  |  |  |  |  |  |  |  |  | receptor affinity [8]: high; bioavailability [9]: low
